Source: US12220414B2, “Use of sGC stimulators for the treatment of mitochondrial disorders” (Tisento Therapeutics Inc., priority 2018, dated 2025)

Key:
[1] = tested on: PGC1α; test: B-DNA gene expression assay, ZSF1 rat model; format: in vivo; conditions: ZSF1 obese rats
Procedure: There are 4 groups of animals in the study design: • 1. ZSF1 Lean—Vehicle (n=6) • 2. ZSF1 Obese—Vehicle (n=9) • 3. ZSF1 Obese—Compound A 10 mg/kg/day (n=9) • 4. […]
Animals in Group 4 was placed on drinking water containing enalapril and kept on Purina 5008 rodent chow (C13000). Animals in Groups 1-3 were kept on Purina 5008 rodent chow and drinking water. Ten days after the initiation of enalapril treatment, […] received Compound A at 10 mg/kg/day, respectively for 11 weeks (monotherapy). Beginning on day 10, animals in Groups 3 and 4 received Compound A at 10 mg/kg/day in addition to enalapril for an additional 11 weeks (combination therapy). […]
(§1) For gene expression analysis, 5-10 mg of tissue samples from ZSF1 rat liver, CCl4 rat liver, or DIO mice brain hypothalamus, or approximately 50 mg of white adipose tissue (WAT) from ZSF1 rat were homogenized and processed using QuantiGene sample processing kit according to manufacturer's instruction (Affymatrix, Fremont, CA). Gene expression in the tissue samples was measured using a QuantiGene 2.0 Plex Assay kit (Affymetrix) and multiplex gene panel specifically designed for each animal model following manufacture instructions. Analytes were measured using Luminex MAGPIX™ (Bio-Rad, Hercules, CA). […]

[2] = tested on: Pparγ; test: B-DNA gene expression assay, carbon tetrachloride (CCl4) rat model, liver; format: in vivo, Sprague-Dawley rat; conditions: CCl4 rats; 3 mg/kg; FIG. 2C
Procedure: Male, Sprague-Dawley rat were dosed with 0.25 ml/kg of CCl4 PO three times a week diluted in corn oil for the duration of the study (8 weeks). Control animals received an equivalent volume of corn oil. Two weeks after beginning the administration of CCl4, animals were given a chow admixture containing Compound A calculated to achieve doses of 3 mg/kg/day.
For gene expression analysis, 5-10 mg of tissue samples from ZSF1 rat liver, CCl4 rat liver, or DIO mice brain hypothalamus, or approximately 50 mg of white adipose tissue (WAT) from ZSF1 rat were homogenized and processed using QuantiGene sample processing kit according to manufacturer's instruction (Affymatrix, Fremont, CA). Gene expression in the tissue samples was measured using a QuantiGene 2.0 Plex Assay kit (Affymetrix) and multiplex gene panel specifically designed for each animal model following manufacture instructions. Analytes were measured using Luminex MAGPIX™ (Bio-Rad, Hercules, CA). Median fluorescence intensity (MFI) was generated for each gene target and normalized to the geometric mean expression of selected housekeeping genes, which were chosen to match the target transcript abundance.

[3] = tested on: Pparα; test: B-DNA gene expression assay, DIO mouse model, WAT; format: in vivo; conditions: DIO mice; 6 mg/kg in diet, 28 days; FIG. 2B (eWAT)
Procedure: (§2) Animals were fed either chow or high fat diet (Research Diets). The lean mice were maintained on a standard chow diet. The obese mice were given 60% high fat diet (HFD) starting at 6 weeks of age. All animals were allowed free access to drinking water and chow. The study began when the mice were 12 weeks of age and concluded after 4 weeks (16 weeks of age). The obese control group was maintained on HFD. Groups receiving compound treatments were fed with HFD containing 90 mg Compound A/kg diet (an approximate dose of 6 mg/kg) or 45 mg vericiguat/kg diet (an approximate dose of 3 mg/kg). Body weights were determined twice weekly and food intake was measured daily for 28 days. […]
as §1

[4] = tested on: AMPK; test: B-DNA gene expression assay, DIO mouse model, WAT; format: in vivo; conditions: DIO mice; 6 mg/kg in diet, 28 days; FIG. 2A (AMPKα1, eWAT)
Procedure: as §2, §1

[5] = tested on: ADMA; conditions: diabetic patients; fourteen-day study (Hanrahan et al 2018); cited from earlier work
[6] = tested on: TFAM; test: bDNA gene expression assay in patient cells; format: cell-based, human; conditions: in the presence of DETA
Procedure: (§3) Lymphoblast cells of LHON patient (GM11605 and GM10742) and Leigh patient (GM13740) were purchased from Coriell institute and cultured according to recommended growth condition from the vendor. The culture medium RPMI-1640 (ATCC, catalog #30-2006) containing 15% fetal bovine serum (Corning catalog #35-015-CV).
(§4) Coriell cells were plated on 96-well V-bottom culture plate (Corning Catalog #3894) at density of 200,000 cells per well in 90 ul RPMI-1640 media containing 2% FBS. Three hours later, 10 μL per well of 10× compounds (at its final conc.) diluted in RPMI-1640 media containing 2% FBS were added to the cells and incubated at 37 C for 24 hrs. The next day, cells were spun down by centrifuging in a benchtop centrifuge (Beckman Model #TJ-25) at 300 g for 5 min, media was removed and cell pellets were lysed in 100 μL/well with lysis mixture provided by QuantiGene sample processing kit (Affymetrix catalog #QS010). Gene expression in the cell lysates was measured using a QuantiGene 2.0 Plex Assay kit (Affymetrix catalog #QP1013) and multiplex gene panel (Thermo/Fisher, plex set #QGP-150-M19022101) according to manufacturer's protocols. Analytes were measured using Luminex MAGPIX™ (Bio-Rad, Hercules, CA). Median fluorescence intensity (MFI) was generated for each gene target and normalized to the geometric mean expression of three housekeeping genes (Hprt1, Ppib and Polr2a), which were chosen to match the target transcript abundance.

[7] = tested on: DDAH2; test: bDNA gene expression assay in patient cells; format: cell-based, human; conditions: in the presence of DETA
Procedure: as §3, §4

[8] = tested on: LHON patient cells GM10742; test: ATP assay (ATPlite); format: cell-based, human; conditions: compound alone or in combination with DETA, 24 hrs
Procedure: as §3
(§5) Corielll cells were plated on 96-well V-bottom culture plate (Corning Catalog #3894) at density of 200,000 cells per well in 90 ul RPMI-1640 media containing 2% FBS. Three hours later, 10 μL per well of 10× compounds (at its final conc.) diluted in RPMI-1640 media containing 2% FBS were added to the cells and incubated at 37 C for 24 hrs. The next day, ATP levels in the cells were measure using ATPlite kit (PerkinElmer Cat #6016943)

[9] = tested on: Leigh patient cells GM13740; test: ATP assay (ATPlite); format: cell-based, human; conditions: compound alone or in combination with DETA, 24 hrs
Procedure: as §3, §5

[10] = tested on: LHON patient cells GM11605; test: ATP assay (ATPlite); format: cell-based, human; conditions: compound alone or in combination with DETA, 24 hrs
Procedure: as §3, §5

[11] = tested on: PGC1α; test: B-DNA gene expression assay, diet-induced obesity (DIO) mouse model, hypothalamus; format: in vivo; conditions: DIO mice, compound in high fat diet; FIG. 1C
Procedure: as §2, §1

[12] = biological target: T1, sGC (Homo sapiens, UniProt Q02153); test: cGMP measurement in mitochondrial disease patient lymphoblast cells; format: cell-based; conditions: in combination with DETA
T1 construct: confirming functional expression of sGC in these patient cells; host or cells: human LHON and Leigh patient lymphoblast cells
T1 sequence (Q02153 1-619): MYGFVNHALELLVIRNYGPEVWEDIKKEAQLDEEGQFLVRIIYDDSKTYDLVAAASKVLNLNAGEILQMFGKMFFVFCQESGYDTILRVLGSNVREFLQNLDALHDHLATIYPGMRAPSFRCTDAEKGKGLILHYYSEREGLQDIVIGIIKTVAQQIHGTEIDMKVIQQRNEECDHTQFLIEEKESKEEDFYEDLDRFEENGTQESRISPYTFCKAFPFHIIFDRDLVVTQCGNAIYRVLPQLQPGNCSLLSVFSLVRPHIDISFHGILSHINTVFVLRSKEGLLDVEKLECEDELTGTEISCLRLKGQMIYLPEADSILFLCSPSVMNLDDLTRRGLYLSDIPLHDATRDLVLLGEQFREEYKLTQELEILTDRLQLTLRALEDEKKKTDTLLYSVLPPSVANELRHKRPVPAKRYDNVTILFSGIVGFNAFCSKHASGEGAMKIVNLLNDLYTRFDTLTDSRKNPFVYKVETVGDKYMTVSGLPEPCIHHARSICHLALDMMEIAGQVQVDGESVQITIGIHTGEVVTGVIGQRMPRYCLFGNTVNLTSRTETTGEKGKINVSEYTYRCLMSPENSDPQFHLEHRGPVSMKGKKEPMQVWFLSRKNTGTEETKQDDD
T1 sequence (Q02108 1-690 partner): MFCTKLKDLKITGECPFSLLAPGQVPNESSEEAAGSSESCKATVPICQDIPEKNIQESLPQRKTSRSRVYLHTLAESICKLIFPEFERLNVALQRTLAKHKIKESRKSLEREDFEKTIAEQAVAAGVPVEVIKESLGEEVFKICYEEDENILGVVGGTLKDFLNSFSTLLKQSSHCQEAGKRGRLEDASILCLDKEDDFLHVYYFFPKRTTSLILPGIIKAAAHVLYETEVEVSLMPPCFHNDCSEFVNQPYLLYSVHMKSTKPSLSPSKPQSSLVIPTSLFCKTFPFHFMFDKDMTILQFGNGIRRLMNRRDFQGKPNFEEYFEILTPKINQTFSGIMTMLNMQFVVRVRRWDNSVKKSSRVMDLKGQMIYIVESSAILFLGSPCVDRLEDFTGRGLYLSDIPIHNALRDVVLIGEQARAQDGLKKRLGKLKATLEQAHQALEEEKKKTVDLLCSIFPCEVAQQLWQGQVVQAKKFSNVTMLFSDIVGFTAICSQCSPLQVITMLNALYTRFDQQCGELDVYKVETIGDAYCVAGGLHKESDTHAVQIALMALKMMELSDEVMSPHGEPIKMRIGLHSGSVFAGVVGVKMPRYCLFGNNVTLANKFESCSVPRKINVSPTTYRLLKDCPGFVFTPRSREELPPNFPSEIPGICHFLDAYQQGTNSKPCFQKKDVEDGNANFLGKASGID
Procedure: as §3
On the day of the assay, Coriell cells were plated on 96-well V-bottom culture plate (Corning Catalog #3894) at density of 200,000 cells per well in 100 ul culture media. Right before the assay, cells were spun down by centrifuging in a benchtop centrifuge (Beckman Model #TJ-25) at 300 g for 5 min, media was removed and cell pellets were carefully washed once with 200 μL of HBSS containing Ca^2+ and Mg^2+ (Gibco catalog #14025-075). The cells were spun down, then 90 μL per well of HBSS containing 0.5 mM IBMX was added to the cells and were incubated at 37° C. for 15 min. Then 10 μL per well of 10× compounds (at its final conc.) diluted in HBSS solution containing IBMX plus different concentration of NO donor, DETA (final concentration of 0, 10 μM, 30 μM) was added to the cells and incubated at 37° C. for another 20 min. Cell pellets were spun down and lysed with 0.1 N HCl (100 ul/well). cGMP was measured using a cGMP Biotrak EIA kit (GE cat no. RPN226). cGMP concentrations of the samples were calculated from the standard curve.

For `OC(CNc1nc(-c2cc(-c3ccon3)n(Cc3ccccc3F)n2)ncc1F)(C(F)(F)F)C(F)(F)F` [Compound A], the “gene expression level of PGC1α in white adipose tissue (WAT)” value ([1]; 10 mg/kg in combination with enalapril at 3 mg/kg, FIG. 1A) was “increased”, the “gene expression level of Pparγ in liver” value [2] was “increased” and the “gene expression level of Pparα in WAT” value [3] was “increased”. The “gene expression level of AMPK in WAT” value [4] was “increased” and the “levels of circulating ADMA” value [5] was “reduced”.

With `Fc1ccccc1Cc1nc(-c2nc(C(F)(F)F)n[nH]2)cn2ccnc12` [Compound B] the “TFAM gene expression level” value ([6]; LHON patient cells (GM11605), FIG. 5A) was “increased”, the “TFAM gene expression level” value ([6]; Leigh patient cells (GM13740), FIG. 6A) was “increased” and the “DDAH2 gene expression level” value ([7]; LHON patient cells (GM11605), FIG. 5B) was “increased”. The “DDAH2 gene expression level” value ([7]; Leigh patient cells (GM13740), FIG. 6B) was “increased”, the “ATP production / ATP level” value [8] was “increase” and the “ATP production / ATP level” value [9] was “increase”. For the same compound, the “ATP production / ATP level” value [10] was “increase” and the “PGC1α expression in hypothalamus” value [11] was “increased PGC1α expression significantly”.

With `NC(=O)[C@](O)(CNc1nc(-c2cc(-c3ccon3)n(Cc3ccccc3F)n2)ncc1F)C(F)(F)F` [Compound D] the “gene expression level of PGC1α in liver” value ([1]; 30 mg/kg in combination with enalapril at 3 mg/kg, FIG. 1B) was “increased” and the “ATP production / ATP level” value [9] was “increased ATP levels significantly”.

For `Fc1ccccc1Cn1nc(-c2nc(C(F)(F)F)n[nH]2)c2cccnc21` [Compound E], the “ATP production / ATP level” value [9] was “significantly increase”, the “ATP production / ATP level” value [10] was “significantly increase” and the cGMP formation ([12]; LHON patient cells GM10742, FIG. 3B) was “significantly activated”. The cGMP formation ([12]; LHON patient cells GM11605, FIG. 3A) was “significantly activated” and the cGMP formation ([12]; Leigh patient cells GM13740, FIG. 3C) was “significantly activated”.
